Measurements as given in US20250059188A1, “ARYLSULPHONAMIDE COMPOUNDS” (Anaxis Pharma Pty Ltd, priority 2021, published 2025).

Legend:
human MLKL (full length) = human MLKL (full length) (Homo sapiens (Human), UniProt Q8NB16); test: KINOMEscan binding assay, human MLKL (full length); conditions: equilibrium dissociation constant
Method in brief: (§1)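 Binding constants were derived by fitting qPCR-quantified bead-retained kinase against compound concentration to the Hill equation, slope set at −1. Compound series were 3-fold over 11 points with 1% DMSO; most top concentrations were 30,000 nM. Kinases were T7-phage-tagged or HEK-293-produced with DNA tags.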

human RIPK1 = human RIPK1 (Homo sapiens (Human), UniProt Q13546); test: KINOMEscan binding assay, human RIPK1; conditions: equilibrium dissociation constant
Chain of human RIPK1 (Q13546 whole entry): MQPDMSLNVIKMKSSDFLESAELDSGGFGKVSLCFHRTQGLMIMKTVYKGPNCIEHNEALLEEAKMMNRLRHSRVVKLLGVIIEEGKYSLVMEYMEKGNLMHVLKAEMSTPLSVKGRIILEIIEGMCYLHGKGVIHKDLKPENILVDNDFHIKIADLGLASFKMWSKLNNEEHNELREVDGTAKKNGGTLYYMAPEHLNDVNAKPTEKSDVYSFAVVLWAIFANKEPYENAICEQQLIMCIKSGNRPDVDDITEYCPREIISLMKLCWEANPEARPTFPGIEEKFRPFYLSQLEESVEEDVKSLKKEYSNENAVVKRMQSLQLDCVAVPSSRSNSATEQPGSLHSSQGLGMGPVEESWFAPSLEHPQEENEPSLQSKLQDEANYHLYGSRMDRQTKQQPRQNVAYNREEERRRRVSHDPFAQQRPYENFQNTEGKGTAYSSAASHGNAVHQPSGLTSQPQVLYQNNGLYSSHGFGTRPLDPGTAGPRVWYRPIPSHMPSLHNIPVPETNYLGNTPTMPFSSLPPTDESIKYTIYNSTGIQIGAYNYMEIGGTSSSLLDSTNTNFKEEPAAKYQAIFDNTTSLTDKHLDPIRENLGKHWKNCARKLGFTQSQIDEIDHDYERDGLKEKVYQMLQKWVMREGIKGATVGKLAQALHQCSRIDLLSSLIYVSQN
Method in brief: as §1

human RIPK3 = human RIPK3 (Homo sapiens (Human), UniProt Q9Y572); test: KINOMEscan binding assay, human RIPK3; conditions: equilibrium dissociation constant
Chain of human RIPK3 (Q9Y572 whole entry): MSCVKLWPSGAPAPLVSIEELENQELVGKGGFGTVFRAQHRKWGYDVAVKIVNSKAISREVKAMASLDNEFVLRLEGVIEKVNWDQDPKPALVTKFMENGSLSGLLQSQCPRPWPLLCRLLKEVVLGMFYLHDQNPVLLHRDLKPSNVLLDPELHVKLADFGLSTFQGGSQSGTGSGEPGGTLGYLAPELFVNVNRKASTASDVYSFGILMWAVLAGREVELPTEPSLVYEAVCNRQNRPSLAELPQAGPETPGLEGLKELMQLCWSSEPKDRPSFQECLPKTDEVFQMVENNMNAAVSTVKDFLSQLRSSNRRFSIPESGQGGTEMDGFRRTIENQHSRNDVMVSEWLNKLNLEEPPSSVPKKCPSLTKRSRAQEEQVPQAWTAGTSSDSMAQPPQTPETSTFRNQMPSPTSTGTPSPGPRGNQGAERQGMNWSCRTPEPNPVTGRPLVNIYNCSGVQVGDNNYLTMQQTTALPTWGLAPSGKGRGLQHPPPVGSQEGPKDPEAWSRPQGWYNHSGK
Method in brief: as §1

mouse MLKL (full length) = mouse MLKL (full length) (Mus musculus (Mouse), UniProt Q9D2Y4); test: KINOMEscan binding assay, mouse MLKL (full length); conditions: equilibrium dissociation constant
Chain of mouse MLKL (full length) (Q9D2Y4 whole entry): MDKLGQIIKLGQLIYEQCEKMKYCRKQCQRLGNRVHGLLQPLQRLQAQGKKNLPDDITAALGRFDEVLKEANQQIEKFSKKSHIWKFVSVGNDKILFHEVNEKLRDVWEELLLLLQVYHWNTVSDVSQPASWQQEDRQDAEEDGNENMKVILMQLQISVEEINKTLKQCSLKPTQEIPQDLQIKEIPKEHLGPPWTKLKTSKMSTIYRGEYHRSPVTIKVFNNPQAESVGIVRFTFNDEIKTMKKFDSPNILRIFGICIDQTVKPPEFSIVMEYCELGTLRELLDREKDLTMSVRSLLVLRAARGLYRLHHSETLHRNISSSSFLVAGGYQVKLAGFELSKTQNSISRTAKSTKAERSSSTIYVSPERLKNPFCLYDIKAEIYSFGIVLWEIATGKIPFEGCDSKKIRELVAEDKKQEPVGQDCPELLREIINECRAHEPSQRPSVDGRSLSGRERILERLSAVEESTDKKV
Description: Binding affinity of the test compounds for human MLKL (full length), mouse MLKL (full length), human RIPK1 and human RIPK3 was determined using the KINOMEscan™ technology developed by DiscoverX (USA; http://www.discoverx.com). The assay was conducted according to manufacturer instructions.
Kinase assays. For most assays, kinase-tagged T7 phage strains were grown in parallel in 24-well blocks in an E. coli host derived from the BL21 strain. E. coli were grown to log-phase and infected with T7 phage from a frozen stock (multiplicity of infection=0.4) and incubated with shaking at 32° C. until lysis (90-150 minutes). The lysates were centrifuged (6,000×g) and filtered (0.2 μm) to remove cell debris. The remaining kinases were produced in HEK-293 cells and subsequently tagged with DNA for qPCR detection. […] The liganded beads were blocked with excess biotin and washed with blocking buffer (SeaBlock (Pierce), 1% BSA, 0.05% Tween 20, 1 mM DTT) to remove unbound ligand and to reduce non-specific phage binding. […] All reactions were performed in polypropylene 384-well plates in a final volume of 20 μL. […] The kinase concentration in the eluates was measured by qPCR.
An 11-point 3-fold serial dilution of each test compound was prepared in 100% DMSO at 100× final test concentration and subsequently diluted to 1× in the assay (final DMSO concentration=1%). Most Kos were determined using a compound top concentration=30,000 nM.
KD for each test compound was calculated with a standard dose-response curve using the Hill equation (equation (1)): […]
The Hill Slope was set to −1.
Curves were fitted using a non-linear least square fit with the Levenberg-Marquardt algorithm.

[1] = system: Immortalised Mouse Dermal Fibroblasts (MDFs); test: Inhibition of TSI induced necroptosis in mouse dermal fibroblasts (CellTitre-Glo); conditions: Mus musculus, Fibroblast, 3 h, MDF cells, TSI cocktail (TNF, Smac mimetic, IDN-6556), read-out: Inhibition of TSI-induced necroptosis (IC50 cell-based assay) in MDF
Description: Cellular Assay: Screening Compounds for Inhibition of TSI Induced Necroptosis in, 384 well plate format. • Cell Line ID: Immortalised Mouse Dermal Fibroblasts (MDFs). • Cell Concentration (cells/well): Final cell density is 2200 cells per well. • Cell growth medium: DMEM medium+7.4% Fetal Bovine Serum (FBS). Cells are cultured in Corning 150 cm^2 tissue culture flasks with vented caps at 37° C./10% CO2. • Incubation: Plates were incubated for 30 minutes following addition of compounds and then 3 hours incubation with death stimuli (TSI cocktail) at 37° C./10% CO2 in a humidified incubator. • Compound concentration: 36 μM starting concentration, 1:3 dilution, 10 point • DMSO final concentration (% v/v): 0.3%. Compounds in TSI Cocktail (T: TNF; S: Smac Mimetic; I: IDN-6556) and their Final Concentrations: • rhTNF (100 ng/ml) • Compound A (500 nM)—Smac mimetic, Tetralogic and SYNthesis med chem • IDN-6556 (10 μM)—Selleckchem (S7775)
The cellular assay was carried out according to the following steps: • 1. Each well was prepared by sequential addition of: • a. 40 μL of cell suspension (5.5×10^4 cells/mL) was added to each well to provide a final cell concentration of 2,200 cells per well. • b. After 24 hours, DMSO (control; columns 1-2 and 23-24) or compound in DMSO—addition was performed using acoustic transfer of nL volumes of stock compound to give final test concentrations of 36, 12, 4, 1.3, 0.44, 0.148, 0.049, 0.016, 0.005 and 0.002 μM. All wells were backfilled with DMSO to a final total volume in the well of 100 nL. • c. Following compound/DMSO addition in step (b), Plates were incubated for 30 minutes at 37° C./10% CO2 in a humidified incubator and then 10 μL of 5×TSI cocktail (except to positive controls; columns 2 and 24) was added to each well. • 2. After 3 hours, plate was removed from the 37° C. incubator and equilibrated to room temperature for 15 minutes. • 3. 15 μL of room temperature CellTitre-Glo2™ (Promega™) was added to each well. • 4. Shook plates for 2 minutes (˜600 rpm) and incubated at room temperature for 15 minutes to allow signal to stabilise. • 5. Read luminescence readout on a plate reader.
Percent viability was calculated for each compound according to equation (2): […]
10 point titration curves were fitted with the 4 parameter logistic nonlinear regression model and the IC50 reported reflect the inflection point of the curve for curve fitting.
• Assay involving the TSI cocktail (T: TNF; S: Smac mimetic; I: IDN-6556): TSI treatment ensures that cells specifically undergo necroptotic cell death. TNF activates the TNF receptor, Smac mimetic directs the signal away from proinflammatory signaling and toward the RIPK1/RIPK3-mediated cell death pathways, and IDN-6556 (Caspase inhibitor) ensures that the apoptotic response is blocked leaving only the programmed necrosis response. The compounds' activity (solution in DMSO) tested in this TSI-induced assay was evaluated by determining the number of viable cells in culture by measuring the amount of ATP present as measured by CelltiterGlo.

Chain of human MLKL (full length) (Q8NB16 whole entry): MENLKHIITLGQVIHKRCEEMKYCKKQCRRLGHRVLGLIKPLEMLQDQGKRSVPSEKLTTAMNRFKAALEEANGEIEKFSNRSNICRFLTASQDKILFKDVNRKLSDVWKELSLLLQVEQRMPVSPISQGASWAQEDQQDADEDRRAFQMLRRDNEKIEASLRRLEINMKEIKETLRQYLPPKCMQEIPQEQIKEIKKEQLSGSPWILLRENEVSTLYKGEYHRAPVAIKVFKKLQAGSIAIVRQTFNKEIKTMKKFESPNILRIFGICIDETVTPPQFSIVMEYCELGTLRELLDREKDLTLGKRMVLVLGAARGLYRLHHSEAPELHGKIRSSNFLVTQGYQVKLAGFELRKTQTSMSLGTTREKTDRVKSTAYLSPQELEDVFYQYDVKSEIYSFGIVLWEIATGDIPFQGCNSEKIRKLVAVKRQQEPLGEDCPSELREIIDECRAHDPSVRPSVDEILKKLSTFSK

Kd (human MLKL (full length)): 0.001 to 0.1 µM
Kd (human RIPK1): > 10 µM
Kd (human RIPK3): > 10 µM
Kd (mouse MLKL (full length)): 0.001 to 0.1 µM
Compound: Nc1ncc(-c2cnn(C3CCOCC3)c2)c2occ(-c3ccc(NS(=O)(=O)CC(F)(F)F)c(OCc4ccc(F)cc4)c3)c12 [Compound 11, N-(4-(4-amino-7-(1-(tetrahydro-2H-pyran-4-yl)-1H-pyrazol-4-yl)furo[3,2-c]pyridin-3-yl)-2-((4-fluorobenzyl)oxy)phenyl)-2,2,2-trifluoroethane-1-sulfonamide]
IC50 [1]: 1 to 10 µM
